# Tests used:
# jck mice [1] = assay: Immunoblot of marker levels in urinary exosomes of jck mice treated with GCS inhibitor; assay type: in vivo, mouse; details: jck mice treated continuously for 5 weeks (0.225% in diet), vs control mice, FIG. 3
# Description: (§1) C57BL/6J jck/+ mice were maintained for crossing. The cystic jck/jck mice were genotyped as previously described (Smith et al., J. Am. Soc. Nephrol. 17:2821-2831, 2006). Pcy mice were maintained on a CD1 genetic background as previously described (Takahashi et al., J. Am. Soc. Nephrol. 1:980-989, 1991). GCS inhibitor C9 was administered ad libitum to jck and pcy mice by mixing in powdered 5053 diet at 0.225% from 26 to 64 days and 4 to 30 weeks of age, respectively (as described in Natoli et al., Nature Medicine 16:788-792, 2010). Urine samples from the mice were collected in metabolic cages over a 24-hour period and stored at −80° C.
# (§2) Exosomes were isolated from pooled urine samples (animal studies) or mid void urine samples (human samples) by ultracentrifugation at 100,000 g for 2 hours. Following ultracentrifugation, the exosome pellet was resuspended in 2.5× Laemmli Buffer (5×: 15% SDS, 0.575 M sucrose, 0.325 M Tris, pH 6.8, 5% beta-mercapto ethanol, and 0.002% bromophenol blue) for sodium dodecyl sulfate-polyacrylamide gel electrophoresis (SDS-PAGE) and immunoblot analysis.
# (§3) Kidney samples were homogenized on ice in radioimmunoprecipitation assay (RIPA) buffer (Boston BioProducts, Ashland, Mass.) containing 1 mM dithiothreitol, 5 mM ethylenediaminetetraacetic acid (EDTA), 2 mM NaF, 1 mM Na3VO4 (all supplied by Sigma-Aldrich, St. Louis, Mo.), Pefabloc SC and Complete protease inhibitor cocktail (both from Roche, Basel, Switzerland). Protein concentration was determined by BCA protein assay (Pierce, Rockford, Ill.). The samples were loaded onto 4-12% NuPage Bis-Tris gels following the manufacturer's protocols (Invitrogen, Grand Island, N.Y.). Electrophoretic transfer of the proteins in the gel onto nitrocellulose was performed in a semi-dry apparatus according to the manufacturer's instructions (Invitrogen). After electrophoretic transfer, the resulting membranes were blocked with 5% non-fat milk in tris-buffered saline (TBS) containing 0.1% Tween-20 and incubated with primary antibodies overnight at 4° C. The primary antibodies were detected with horseradish peroxidase-labeled secondary antibodies at a 1:10,000 dilution (Promega, Fitchburg, Wis.). […] The primary antibodies to the following antigenes were used: PCNA (DAKO, Carpinteria, Calif.), cyclin D1, S6, phospho-S6 (Ser235/236), phospho-AKT (ser473), total ERK, phospho-ERK (Thr202/Tyr204) (Cell Signaling Technology, Danvers, Mass.), cyclin D3, total AKT, caspase-2, RBBP (BD Biosciences, Billerica, Mass.), MEK1 (Upstate Biotechnology, Lake Placid, N.Y.), aquaporin-2 (Millipore, Billerica, Mass.) β-actin, TSG101 (Abcam, Cambridge, Mass.), ALIX (Santa Cruz Biotechnology, Dallas, Tex.), and GAPDH (US Biological, Salem, Mass.).
# A further set of experiments was performed to determine whether the same markers could be used to determine the efficacy of a treatment for PKD in a patient having PKD. In these experiments, urine samples from jck mice that were treated with GCS inhibitor C9 continuously for 5 weeks were gathered (FIG. 2) and the levels of each biomarker were analyzed in urine exosomes and kidney lysate samples. […] The data in FIG. 3 show, e.g., that the levels of PCNA, cyclin D3, RBBP, MEK, Erk, phosphorylated ERK, Akt, phosphorylated Akt, S6, phosphorylated S6, and caspase-2 are decreased in kidney lysate samples from jck mice treated with a GCS inhibitor as compared to the levels in kidney lysate samples from control mice. […]
# pcy mice [2] = details: Natoli et al., Nature Medicine 16:788-792, 2010; cited from earlier work
# jck mice [3] = assay: Immunoblot of marker levels in kidney lysate of jck mice treated with GCS inhibitor; assay type: in vivo, mouse; details: jck mice treated continuously for 5 weeks (0.225% in diet), vs control mice, FIG. 3
# Description: as §1, §3
# A further set of experiments was performed to determine whether the same markers could be used to determine the efficacy of a treatment for PKD in a patient having PKD. In these experiments, urine samples from jck mice that were treated with GCS inhibitor C9 continuously for 5 weeks were gathered (FIG. 2) and the levels of each biomarker were analyzed in urine exosomes and kidney lysate samples. […] The data in FIG. 3 show, e.g., that the levels of PCNA, cyclin D3, RBBP, MEK, Erk, phosphorylated ERK, Akt, phosphorylated Akt, S6, phosphorylated S6, and caspase-2 are decreased in kidney lysate samples from jck mice treated with a GCS inhibitor as compared to the levels in kidney lysate samples from control mice. The data in FIG. 3 also show, e.g., that the levels of PCNA, cyclin D1, cyclin D3, MEK, and S6 are decreased in urinary exosomes from jck mice treated with a GCS inhibitor as compared to the levels in urinary exosomes from control mice.
# pcy mice [4] = assay: Immunoblot of marker levels in kidney lysate of pcy mice treated with GCS inhibitor; assay type: in vivo, mouse; details: pcy mice treated for thirty weeks (0.225% in diet), vs untreated mice, FIG. 4
# Description: as §1, §3
# A further set of experiments was performed to validate the use of the markers described herein for both diagnosing and determining the efficacy of treatment in human patients having PKD. In these experiments, another mouse model of PKD, pcy mice were used. The pcy mouse model is a slowly progressive adult form of PKD characterized by cyst formation and fibrosis. […] In these experiments, pcy mice were left untreated or were treated with GCS inhibitor C9 for thirty weeks, and then the expression levels of the markers described herein were determined in both kidney lysate and urine exosome samples. The data from these experiments show the levels of the markers were decreased in both the kidney lysate samples and the urine exosome samples from pcy mice treated with GCS inhibitor C9 as compared to the corresponding levels in the untreated mice (FIG. 4). […] The data in FIG. 4 also show, for example, that the levels of PCNA, phosphorylated Erk, phosphorylated Akt, and S6 are decreased in urinary exosomes from pcy mice treated with GCS inhibitor C9 as compared to the untreated mice.
# pcy mice [5] = assay: Immunoblot of marker levels in urinary exosomes of pcy mice treated with GCS inhibitor; assay type: in vivo, mouse; details: pcy mice treated for thirty weeks (0.225% in diet), vs untreated mice, FIG. 4
# Description: as §1, §2
# Kidney samples were homogenized on ice in radioimmunoprecipitation assay (RIPA) buffer (Boston BioProducts, Ashland, Mass.) containing 1 mM dithiothreitol, 5 mM ethylenediaminetetraacetic acid (EDTA), 2 mM NaF, 1 mM Na3VO4 (all supplied by Sigma-Aldrich, St. Louis, Mo.), Pefabloc SC and Complete protease inhibitor cocktail (both from Roche, Basel, Switzerland). Protein concentration was determined by BCA protein assay (Pierce, Rockford, Ill.). The samples were loaded onto 4-12% NuPage Bis-Tris gels following the manufacturer's protocols (Invitrogen, Grand Island, N.Y.). Electrophoretic transfer of the proteins in the gel onto nitrocellulose was performed in a semi-dry apparatus according to the manufacturer's instructions (Invitrogen). After electrophoretic transfer, the resulting membranes were blocked with 5% non-fat milk in tris-buffered saline (TBS) containing 0.1% Tween-20 and incubated with primary antibodies overnight at 4° C. The primary antibodies were detected with horseradish peroxidase-labeled secondary antibodies at a 1:10,000 dilution (Promega, Fitchburg, Wis.). […]
# A further set of experiments was performed to validate the use of the markers described herein for both diagnosing and determining the efficacy of treatment in human patients having PKD. […] In these experiments, pcy mice were left untreated or were treated with GCS inhibitor C9 for thirty weeks, and then the expression levels of the markers described herein were determined in both kidney lysate and urine exosome samples. […]
compound,measurement,setting,value
CCCCCCCCC(=O)N[C@H](CN1CCCC1)[C@H](O)c1ccc2c(c1)OCCO2 [GCS inhibitor C9],level of MEK,jck mice [1],decreased
same,level of PCNA,jck mice [1],decreased
same,level of S6,jck mice [1],decreased
same,level of cyclin D1,jck mice [1],decreased
same,level of cyclin D3,jck mice [1],decreased
same,cystogenesis,pcy mice [2],effective inhibition
same,fibrogenesis,pcy mice [2],effective inhibition
same,level of Akt,jck mice [3],decreased
same,level of Erk,jck mice [3],decreased
same,level of MEK,jck mice [3],decreased
same,level of PCNA,jck mice [3],decreased
same,level of RBBP,jck mice [3],decreased
same,level of S6,jck mice [3],decreased
same,level of caspase-2,jck mice [3],decreased
same,level of cyclin D3,jck mice [3],decreased
same,level of phosphorylated Akt,jck mice [3],decreased
same,level of phosphorylated ERK,jck mice [3],decreased
same,level of phosphorylated S6,jck mice [3],decreased
same,level of PCNA,pcy mice [4],decreased
same,level of S6,pcy mice [4],decreased
same,level of phosphorylated Akt,pcy mice [4],decreased
same,level of phosphorylated Erk,pcy mice [4],decreased
same,level of phosphorylated S6,pcy mice [4],decreased
same,level of PCNA,pcy mice [5],decreased
same,level of S6,pcy mice [5],decreased
same,level of phosphorylated Akt,pcy mice [5],decreased
same,level of phosphorylated Erk,pcy mice [5],decreased
